Test results reported in patent US20260108561A1, “COMPOSITION FOR CELL TRANSPLANTATION THERAPY AND THE USE THEREOF” (NATIONAL UNIVERSITY OF SINGAPORE, priority 2022, published 2026).

Assays:
[1] = tested on: CCR5, CCL3, CCL4, and CCL5 protein expression; assay: Western blotting of CCR5 and CCL3/4/5 in transplanted cortical tissue; format: in vivo, SCID mice; details: day 44 after ischemic lesion / 30 days post-transplantation; normalized to GAPDH
Description: Animals were anaesthetized and perfused with cold PBS at 2, 14 and 44 days after stroke. The injured cortices or grafts (an area with a radius of 1 mm from the epicenter) were dissected manually under a stereomicroscope (Zeiss) and stored at −80° C.
NPCs and neurons were washed using PBS and resuspended in RIPA buffer with protease inhibitor and phosphatase inhibitor. Samples were collected to 1.5 mL tubes on ice for 15 mins. For tissue samples, extracts were sonicated in cold RIPA buffer with protease/phosphatase inhibitors. All samples were quantified using Quick Start™ Bradford Protein Assay (Bio-RAD), and then Laemmli buffer (Bio-RAD) was added to each tube. Samples were heated at 95° C. for 5 mins and stored at −80° C. Total 15 μg of extract was loaded to each well on a 10% Bis-Tris pre-casted gel for electrophoresis.
After running at 120 V for 40 mins, proteins were transferred to PVDF membranes at 400 mA for 30 mins. […] Then membranes were incubated with primary antibodies overnight at 4° C.: anti-CCR5 (1:1000, Abcam, ab110103), anti-CCL3 (1:1000, Abcam, ab259372), anti-CCL4 (1:1000, Abcam, EP521Y), anti-CCL5 (1:1000, Thermo Fisher Scientific, 701030), anti-GAPDH (1:5000, Thermo Fisher Scientific, MA5-15738). The membranes were washed three times by 0.1% TBST and incubated with corresponding secondary antibodies at room temperature for 1 hour. The protein bands were presented by Enhanced Chemiluminescence Substrate (Promega) and visualized in Bio-RAD Chemidoc system. All intensity of bands was analysed by ImageJ software and normalized to corresponding GAPDH bands.

NPCs = assay: Apoptosis of cultured NPCs (cleaved-caspase3, TUNEL) under CCR5 ligands and CCR5 blockade; format: cell-based, Human; details: for Proportion of cleaved-caspase3+ cells in NPCs: single ligand 300 ng/mL, compared with the control group
Description: Induction of forebrain glutamate NPCs was done using the following procedure. Briefly, H9 hESCs or eGFP H9 hESCs were cultured on 6-well plates with Matrigel/vitronectin coated for one week. ESC colonies were gently blown off by 1 mL pipettes to form cell aggregates at day 0. Cell aggregates were cultured in flasks for 7 days with the neural induction medium (NIM) consisting of DMEM/F12, 1×N2 supplement, 1×NEAA, 2-μM SB431542, and 2-μM DMH-1. Cell aggregates were adhered to 6-well plates in the presence of NIM with 5% FBS for 6 hours, and then fresh NIM was changed. The aggregates were fed with NIM till neural rosette formation at day 16. The rosettes were gently blown off using 1 mL pipettes and suspended in flasks with NIM for 7 days. Then, NIM was changed every four days from day 23. The neural precursor cells (NPCs) were maintained in NIM till transplantation or immunostaining. NPCs were digested into single cells using TrypLE for 3 min at day 49. After one additional day of culture in NIM supplemented with 1×B27 and 100 nM compound E, the NPCs were collected for transplantation in ischemic stroke models. B-27 supplement is a defined yet complex mixture of antioxidant enzymes, proteins, vitamins, and fatty acids that are combined in optimized ratios to support neuronal survival in culture. Compound E is a γ-secretase inhibitor. For immunostaining, NPCs were seeded on glass coverslips and staining was performed after one-week culture.
(§1) To test the effects of CCR5 activation on NPCs and neurons, cells were seeded on Matrigel coated coverslips or 6-well plates and treated with overdose (300 ng/mL) ligands of CCR5. CCL3, CCL4, CCL5 and their combination (CCL3/4/5) were respectively added into NIM every other day. After four-day treatment, NPCs or neurons were collected for staining or immunoblotting.
(§2) 1×10^^5 NPCs were seeded on coverslips in each well of 24-well plate for two days to 50% confluency upon transduction at 37° C. in a humidified 5% C02 incubator. The lentiviral shRNAs (MOIs of 20) were used to infect NPCs overnight at 37° C. The medium containing lentiviral particles was removed from wells and replaced with […] fresh pre-warmed NIM. The infected NPCs were collected for immunostaining or western blotting at 5 days after transduction.
Sections were subsequently washed and incubated with corresponding secondary antibodies for 1 h at room temperature. Immunolabeled sections were mounted by Fluoromount-G with Hoechst. For TUNEL staining, cells on coverslips were fixed in PBS with 4% PFA for 30 mins, and then incubated with Terminal Deoxynucleotidyl Transferase (TdT) Equilibration buffer (Elabscience) at 37° C. for 30 mins. NPCs were incubated in labeling solution (Elabscience) with TdT enzyme at 37° C. for 1 hour.

CCR5 = molecular target: T1, CCR5 (Homo sapiens, UniProt P51681); assay: CCR5 expression on cultured NPCs (immunostaining, Western blotting); format: cell-based; details: immunostaining and Western blotting
T1 construct: endogenous in cells; host or cells: NPCs, immature and mature neurons differentiated from human H9 / eGFP-H9 embryonic stem cells
T1 sequence (P51681 whole entry): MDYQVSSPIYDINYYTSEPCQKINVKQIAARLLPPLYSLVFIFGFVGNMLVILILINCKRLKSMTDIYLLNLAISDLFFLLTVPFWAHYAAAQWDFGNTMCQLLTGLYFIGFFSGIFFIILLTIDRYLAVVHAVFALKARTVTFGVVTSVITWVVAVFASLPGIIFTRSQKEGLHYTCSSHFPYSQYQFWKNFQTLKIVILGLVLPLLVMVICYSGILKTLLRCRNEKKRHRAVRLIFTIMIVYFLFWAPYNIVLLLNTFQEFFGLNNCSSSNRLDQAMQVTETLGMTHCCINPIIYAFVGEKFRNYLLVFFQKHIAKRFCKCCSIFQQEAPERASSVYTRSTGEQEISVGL
Description: as §1, §2
NPCs and neurons were washed using PBS and resuspended in RIPA buffer with protease inhibitor and phosphatase inhibitor. Samples were collected to 1.5 mL tubes on ice for 15 mins. […] All samples were quantified using Quick Start™ Bradford Protein Assay (Bio-RAD), and then Laemmli buffer (Bio-RAD) was added to each tube. […]
After running at 120 V for 40 mins, proteins were transferred to PVDF membranes at 400 mA for 30 mins. […] All intensity of bands was analysed by ImageJ software and normalized to corresponding GAPDH bands.

[2] = tested on: grafted NPCs in the ischemic core; assay: Survival and differentiation of NPCs transplanted into the ischemic core of photothrombotic stroke mice (immunohistochemistry, stereology); format: in vivo, SCID mice; details: for Cleaved-caspase3 immunostaining in grafted cells / Grafted (GFP+) cells in the stroke cavity: 7 days post transplantation; for Grafted (GFP+) cells in the stroke cavity: NPCs injected into ischemic core 2 weeks after stroke; for Gross appearance of the cortex: 30 days post transplantation; for Survival of grafted NPCs (overall conclusion): NPCs transplanted into the ischemic core
Description: All animal studies were performed in accordance with the institutional animal care and use committee at Duke-NUS Medical School. Ischemic strokes in adult (10-12 weeks) male SCID mice were induced through photo-thrombosis. Briefly, Rose Bengal was administered intravenously at a dose of 0.1 mg/g per mouse. Mouse skull was exposed under 2% isoflurane anaesthesia. The right motor cortex (anterior-posterior [AP]=+2 mm, lateral [L]=+1 mm) received a 2.5-mm diameter illumination of cold light through the intact skull for 15 min. Animals were randomly grouped and transplanted with forebrain glutamatergic precursors.
Animals were sacrificed with a lethal dose of pentobarbital (250 mg/kg) and immediately perfused with PBS followed by 4% cold paraformaldehyde (PFA). The brain samples were fixed in cold PFA for 2 hours and immersed in 30% sucrose at 4° C. for around 4 days until sunk. Serial coronal (1.54 mm to-0.22 mm from Bregma) sections were collected on a freezing microtome at a 40-μm thickness and stored at −20° C. For immunostaining, sections were incubated with blocking solution containing 10% normal donkey serum and 0.2% Triton-100 for 1 h at room temperature. Then sections were incubated with primary antibodies overnight at 4° C.
To quantify the population of DCX, SOX2, Ki67, NF and NeuN positive cells to total grafted cells (eGFP and Hoechst co-labelled), one brain slice was selected from every 6 serial slices on for stereological counting on Zeiss M1 Microscope with Stereo Investigator software (MBF Bioscience). In brief, immunolabeled slices were scanned on Zeiss M1 Microscope, grafts area was contoured manually, and then corresponding fluorescence labelled cells were unbiasedly counted. Population of cleaved-caspase3 expressing cells to total grafted cells was counted with ImageJ software. Data were replicated 4 to 6 times per group. To quantify the population of Brn2, Ctip2 and Foxp2 expressing cells to total GFP^+ cells on coverslips, all coverslips were scanned and captured by 20× objective with a confocal microscope (Nikon), and then was counted with ImageJ software. Data were replicated three times. All data were expressed as means±SEM.

[3] = tested on: neurons in the penumbra area; details: 100 mg/kg, i.p. daily; cited from earlier work

| Molecule | CCR5 level in transplanted cortical tissue [1] | Level of CCL3, 4, 5 in transplanted cortical tissue [1] | Cleaved-caspase3 immunostaining in grafted cells [2] | Grafted (GFP+) cells in the stroke cavity [2] | Gross appearance of the cortex [2] | Survival of grafted NPCs (overall conclusion) [2] | Proportion of cleaved-caspase3+ cells in NPCs (NPCs) | other results |
| --- | --- | --- | --- | --- | --- | --- | --- | --- |
| Maraviroc [reference compound] | did not downregulate | did not show obvious difference | strong fluorescence | few or no GFP^+ cells | collapsed cortex | insufficient to improve the survival of grafted NPCs | – | TUNEL+ cell population in NPCs under CCR5 blockade (NPCs; apoptosis induced by CCLs): reduced the proportion of TUNEL^+ NPCs; Expression of CCR5 in NPCs under CCR5 blockade (CCR5): without reducing the expression of CCR5; Survival of neurons in the penumbra after stroke [3]: promoted the survival of those neurons and their synaptic connections |
| fibrinogen | did not downregulate | did not show obvious difference | strong fluorescence | observed in the stroke cavity | collapsed cortex | insufficient to improve the survival of grafted NPCs | – | Fate of grafted cells ([2]; one month post-transplantation): some surviving cells, which did not proliferate and became GFAP positive astrocytes |
| CCL3: chemokine ligand 3, ligand of CCR5 (protein, UniProt P10147 24-92, looked up) C-C motif chemokine 3: SLAADTPTACCFSYTSRQIPQNFIADYFETSSQCSKPGVIFLTKRSRQVCADPSEEWVQKYVSDLELSA | – | – | – | – | – | – | increased | – |
| CCL4: chemokine ligand 4, ligand of CCR5 (protein, UniProt P13236 24-92, looked up) C-C motif chemokine 4: APMGSDPPTACCFSYTARKLPRNFVVDYYETSSLCSQPAVVFQTKRSKQVCADPSESWVQEYVYDLELN | – | – | – | – | – | – | increased | – |
| CCL5: chemokine ligand 5, ligand of CCR5 (protein, UniProt P13501 24-91, looked up) C-C motif chemokine 5: SPYSSDTTPCCFAYIARPLPRAHIKEYFYTSGKCSNPAVVFVTRKNRQVCANPEKKWVREYINSLEMS | – | – | – | – | – | – | increased | – |
